Key:
[1] = system: IL-12-induced IFN-γ secretion in NK92 cells; assay: Inhibition of IL-12-induced IFN-γ secretion in NK92 cells (ELISA); format: cell-based; settings: Homo sapiens, IL-12 stimulation, 24 hours, read-out: IC50 (NK92IL12/IFN-γ)
Procedure: The effect of the compounds of the present invention on IFN-γ secretion in IL-12-induced NK92 cells was evaluated by an enzyme-linked immunosorbent assay (ELISA).
The assay principle was generally described below: IL-12R was mainly expressed in activated T-cells, NK cells (NK92 was an NK cell line), DC cells, and B-cells. When binding to IL-12, it activated the JAK2/TYK2 signal transduction pathway within NK cells and activated T lymphocytes, thereby inducing secretion of IFN-γ.
The compound was dissolved to 2.5 mM in DMSO, followed by a serial 4-fold dilution with DMSO to a minimum concentration of 0.31 μM. Each concentration was further diluted 50-fold with an FBS-free MEMα medium (Thermofisher. 12561-056).
NK92 cells (Nanjing Cobioer, CBP60980) were cultured in a complete MEMα medium containing 12.5% FBS (Ausbian, VS500T), 12.5% horse serum (Thermofisher, 16050-122), 0.02 mM folic acid (Sigma, F8758), 0.2 mM inositol (Sigma, 17850), 0.55 mM β-mercaptoethanol (Thermofish, 21985-023), 200 U/mL IL-2 (R&D Systems, 202-1L), and 100 U/mL penicillin-streptomycin mixed liquor (ThermoFisher, 15140122). When covering 80-90% of the culture container surface, the cells were dispersed and plated on a 96-well plate (ThermoFisher, 167425) with 100,000 cells per well (80 μL of the complete MEMα medium without IL-2). The 96-well plate was then incubated overnight in a 37° C., 5% CO2 incubator.
After overnight incubation, 10 μL of the compound and 10 μL of 50 ng/ml IL-12 (R &D Systems, 219-1L) were added to each well and mixed gently, and the 96-well plate was incubated in the 37° C., 5% CO2 incubator for additional 24 hours. The plate was centrifuged at 800 rpm for 10 minutes at room temperature and 50 μL of the supernatant from each well was transferred to another 96-well plate (Sigma, CLS3695) coated with anti-IFN-γ antibody. The amount of IFN-γ secretion was detected following the instruction from the Human IFN-γ DuoSet ELISA assay kit (R & D Systems, DY285B). In this assay, the group in which IL-12 and the test compound were replaced with the MEMα medium was the non-stimulated control group (100% inhibition), and the group with IL-12 and 0.2% DMSO was the stimulated control group (0% inhibition). The compound inhibition curve was plotted using XLfit software and the IC50 of its inhibition was calculated.

[2] = biological target: human recombinant TYK2 protein (Homo sapiens, UniProt P29597); assay: TYK2 activity inhibition assay (HTRF kinase detection); format: biochemical; settings: 11.25 μM ATP substrate solution
Procedure: The effect of the compounds of the present invention on the activity of TYK2 was assessed by using an in vitro kinase detection assay.
The enzymatic activity of TYK2 was assessed by detecting the substrate phosphorylation level in a kinase reaction with a homogeneous time-resolved fluorescence (HTRF) kinase detection kit (Cisbio, 62TK0PEC). A reaction buffer contained an enzyme buffer (1×), 5 mM MgCl2, 1 mM DTT and 0.01% Brij35 from the kit; a human recombinant TYK2 protein (Carna Biosciences, 08-147) was diluted to a kinase reaction solution of 0.25 ng/μL with the reaction buffer; a substrate reaction solution contained 11.25 μM ATP and a biotin-labeled tyrosine kinase substrate diluted to 0.5 μM with the reaction buffer; a detection buffer contained 0.1 ng/μL Eu^3+ labeled cage antibody (Cisbio, 61T66KLB) and 25 nM streptavidin-labeled XL665 (Cisbio, 610SAXLB) in the reaction buffer; the compound was dissolved to 10 μM in DMSO, followed by a serial 4-fold dilution with DMSO to a minimum concentration of 0.061 nM. Each concentration was further diluted 40-fold with the reaction buffer. To a 384-well assay plate (Corning, 3674) were added 4 μL of the compound solutions having a series of concentrations and 2 μL of kinase reaction solutions. After being mixed evenly, the mixtures were incubated at room temperature for 15 minutes, and then 4 μL of the substrate reaction solutions were added. The reaction mixtures were incubated at room temperature for 40 minutes. Then the reaction mixtures were added with 10 μL of detection solutions, mixed evenly, and allowed to stand at room temperature for 30 minutes. An Envision plate reader (Perkin Elmer) was then used to measure the progress of the reaction at wavelengths of 620 nm and 665 nm. The signal value (absorbance at 665 nm/absorbance at 620 nm) was positively correlated with the degree of substrate phosphorylation, therefore the kinase activity of TYK2 was detected. In this assay, the group without TYK2 kinase protein was the 100% inhibition group, and the group with TYK2 kinase protein but without the test compound was the 0% inhibition group. The compound inhibition curve was plotted using XLfit software and the IC50 of its inhibition was calculated.

[3] = biological target: human recombinant JAK2 protein (Homo sapiens, UniProt O60674); assay: JAK2 activity inhibition assay (HTRF kinase detection); format: biochemical; settings: 2.5 μM ATP substrate solution
Procedure: The effect of the compounds of the present invention on the activity of JAK2 was assessed by using an in vitro kinase detection assay.
The enzymatic activity of JAK2 was assessed by detecting the substrate phosphorylation level in a kinase reaction with a homogeneous time-resolved fluorescence (HTRF) kinase detection kit (Cisbio, 62TK0PEC). A reaction buffer contained an enzyme buffer (1×), 5 mM MgCl2, 1 mM DTT and 0.01% Brij35 from the kit; a human recombinant JAK2 protein (Carna Biosciences, 08-045) was diluted to a kinase reaction solution of 0.15 ng/μL with the reaction buffer; a substrate reaction solution contained 2.5 μM ATP and a biotin-labeled tyrosine kinase substrate diluted to 0.25 μM with the reaction buffer; a detection buffer contained 0.1 ng/μL Eu^3+ labeled cage antibody (Cisbio, 61T66KLB) and 12.5 nM streptavidin-labeled XL665 (Cisbio, 610SAXLB) in the reaction buffer; the compound was dissolved to 10 μM in DMSO, followed by a serial 4-fold dilution with DMSO to a minimum concentration of 0.061 nM. Each concentration was further diluted 40-fold with the reaction buffer. To a 384-well assay plate (Corning, 3674) were added 4 μL of the compound solutions having a series of concentrations and 2 μL of JAK2 kinase reaction solutions. After being mixed evenly, the mixtures were incubated at room temperature for 15 minutes, and then 4 μL of the substrate reaction solutions were added. The reaction mixtures were incubated at room temperature for 30 minutes. Then the reaction mixtures were added with 10 μL of detection solutions, mixed evenly, and allowed to stand at room temperature for 30 minutes. An Envision plate reader (Perkin Elmer) was then used to measure the progress of the reaction at wavelengths of 620 nm and 665 nm. The signal value (absorbance at 665 nm/absorbance at 620 nm) was positively correlated with the degree of substrate phosphorylation, therefore the kinase activity of JAK2 was detected. In this assay, the group without JAK2 kinase protein was the 100% inhibition group, and the group with JAK2 kinase protein but without the test compound was the 0% inhibition group. The compound inhibition curve was plotted using XLfit software and the IC50 of its inhibition was calculated.

Row | Structure (SMILES) | IC50 [1] | IC50 [2] | IC50 [3]
1 | CC(C)(C(=O)N1CCC1)c1ccc(Nc2nc(-c3c(F)cccc3F)n3c2C(=O)NCC3)cc1 [Compound 13, 1-((4-(1-(azetidin-1-yl)-2-methyl-1-oxopropan-2-yl)phenyl)amino)-3-(2,6-difluorophenyl)-6,7-dihydroimidazo[1,5-a]pyrazin-8(5H)-one] | 1060 nM | 0.3 nM | 2.2 nM
2 | O=C1NCCn2c(-c3c(F)cccc3F)nc(Nc3ccc(CC(=O)N4CCOCC4)cc3)c21 [Compound 16, 3-(2,6-difluorophenyl)-1-((4-(2-morpholino-2-oxoethyl)phenyl)amino)-6,7-dihydroimidazo[1,5-a]pyrazin-8(5H)-one] | 1440 nM | 2 nM | 4.9 nM
3 | CC(C)(C(=O)N1CCOCC1)c1ccc(Nc2nc(-c3c(F)cccc3F)n3cc[nH]c(=O)c23)cc1 [Compound 17, 3-(2,6-difluorophenyl)-1-((4-(2-methyl-1-morpholino-1-oxopropan-2-yl)phenyl)amino)imidazo[1,5-a]pyrazin-8(7H)-one] | 520 nM | 0.1 nM | 0.3 nM
4 | CC(C)(C(=O)N1CCOCC1)c1ccc(Nc2nc(-c3c(F)cccc3F)n3c2C(=O)NCC3)cc1 [Compound 18, 3-(2,6-difluorophenyl)-1-((4-(2-methyl-1-morpholino-1-oxopropan-2-yl)phenyl)amino)-6,7-dihydroimidazo[1,5-a]pyrazin-8(5H)-one] | 1410 nM | 0.3 nM | 2.2 nM
5 | O=C(c1ccc(Nc2nc(-c3c(F)cccc3Cl)n3cc[nH]c(=O)c23)cc1)N1CCNCC1 [Compound 32, 3-(2-chloro-6-fluorophenyl)-1-((4-(piperazine-1-carbonyl)phenyl)amino)imidazo[1,5-a]pyrazin-8(7H)-one] | 425 nM | 0.1 nM | 0.6 nM
6 | CC(C)(C(=O)N1CCNCC1)c1ccc(Nc2nc(-c3c(F)cccc3Cl)n3cc[nH]c(=O)c23)cc1 [Compound 38, 3-(2-chloro-6-fluorophenyl)-1-((4-(2-methyl-1-oxo-1-(piperazin-1-yl)propan-2-yl)phenyl)amino)imidazo[1,5-a]pyrazin-8(7H)-one] | 2850 nM | 0.4 nM | 0.5 nM
7 | O=C(O)c1ccc(Nc2nc(-c3c(F)cccc3F)n3cc[nH]c(=O)c23)cc1 [Compound 39, 4-((3-(2,6-difluorophenyl)-8-oxo-7,8-dihydroimidazo[1,5-a]pyrazin-1-yl)amino)benzoic acid] | 4100 nM | 0.5 nM | 4.5 nM

Stronger by IC50 [1], values ahead:

Row | IC50 [1] | IC50 [2] | IC50 [3] | Structure (SMILES)
8 | 268 nM | 0.2 nM | 0.6 nM | CN1CCN(C(=O)C(C)(C)c2ccc(Nc3nc(-c4c(F)cccc4Cl)n4cc[nH]c(=O)c34)cc2)CC1 [Compound 37, 3-(2-chloro-6-fluorophenyl)-1-((4-(2-methyl-1-(4-methylpiperazin-1-yl)-1-oxopropan-2-yl)phenyl)amino)imidazo[1,5-a]pyrazin-8(7H)-one]
9 | 191 nM | 0.4 nM | 0.6 nM | CN1CCN(C(=O)C(C)(C)c2ccc(Nc3nc(-c4c(F)cccc4F)n4cc[nH]c(=O)c34)cc2)CC1 [Compound 35, 3-(2,6-difluorophenyl)-1-((4-(2-methyl-1-(4-methylpiperazin-1-yl)-1-oxopropan-2-yl)phenyl)amino)imidazo[1,5-a]pyrazin-8(7H)-one]
10 | 149 nM | 0.7 nM | 2.9 nM | Cn1cc(Nc2nc(-c3c(F)cccc3Cl)n3cc[nH]c(=O)c23)cn1 [Compound 26, 3-(2-chloro-6-fluorophenyl)-1-((1-methyl-1H-pyrazol-4-yl)amino)imidazo[1,5-a]pyrazin-8(7H)-one]
11 | 113 nM | 0.3 nM | 0.5 nM | O=C(Cc1ccc(Nc2nc(-c3c(F)cccc3F)n3cc[nH]c(=O)c23)cc1)N1CCOCC1 [Compound 14, 3-(2,6-difluorophenyl)-1-((4-(2-morpholino-2-oxoethyl)phenyl)amino)imidazo[1,5-a]pyrazin-8(7H)-one]
12 | 110 nM | 0.9 nM | 5.5 nM | CS(=O)(=O)c1ccc(Nc2nc(-c3c(F)cccc3F)n3c2C(=O)NCC3)cc1 [Compound 12, 3-(2,6-difluorophenyl)-1-((4-(methylsulfonyl)phenyl)amino)-6,7-dihydroimidazo[1,5-a]pyrazin-8(5H)-one]
13 | 66 nM | 0.1 nM | 0.4 nM | CC(C)(C(N)=O)c1ccc(Nc2nc(-c3c(F)cccc3Cl)n3cc[nH]c(=O)c23)cc1 [Compound 33, 2-(4-((3-(2-chloro-6-fluorophenyl)-8-oxo-7,8-dihydroimidazo[1,5-a]pyrazin-1-yl)amino)phenyl)-2-methylpropanamide]
14 | 60 nM | 0.2 nM | 1.4 nM | NC(=O)c1ccc(Nc2nc(-c3c(F)cccc3F)n3cc[nH]c(=O)c23)cc1 [Compound 27, 4-((3-(2,6-difluorophenyl)-8-oxo-7,8-dihydroimidazo[1,5-a]pyrazin-1-yl)amino)benzamide]
15 | 56 nM | 0.1 nM | 0.6 nM | CN1CCN(C(=O)c2ccc(Nc3nc(-c4c(F)cccc4Cl)n4cc[nH]c(=O)c34)cc2)CC1 [Compound 31, 3-(2-chloro-6-fluorophenyl)-1-((4-(4-methylpiperazine-1-carbonyl)phenyl)amino)imidazo[1,5-a]pyrazin-8(7H)-one]
